Reference: ChEMBL document CHEMBL4842358, “Design, synthesis and biological evaluation of sphingosine-1-phosphate receptor 2 antagonists as potent 5-FU-resistance reversal agents for the treatment of colorectal cancer” (Eur J Med Chem, 2021)
Calls of active or inactive are those of the source. No cut-off for these calls is given here.

Key:
[1] = target: T1, Sphingosine 1-phosphate receptor 2 (Homo sapiens, UniProt O95136); assay: Binding affinity to S1PR2 (unknown origin) measured by surface plasmon resonance assay; details: filed as antagonist
T1 sequence (O95136 whole entry): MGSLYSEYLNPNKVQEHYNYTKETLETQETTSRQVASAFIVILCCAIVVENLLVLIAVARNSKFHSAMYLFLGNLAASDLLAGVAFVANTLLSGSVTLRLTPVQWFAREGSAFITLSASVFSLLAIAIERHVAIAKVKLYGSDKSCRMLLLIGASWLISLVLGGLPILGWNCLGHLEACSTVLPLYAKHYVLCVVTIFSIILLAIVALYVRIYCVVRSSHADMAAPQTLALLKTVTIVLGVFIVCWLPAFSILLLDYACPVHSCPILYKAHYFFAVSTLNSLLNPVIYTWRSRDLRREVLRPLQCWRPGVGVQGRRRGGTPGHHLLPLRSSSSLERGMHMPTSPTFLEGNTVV

[2] = target: T1, Sphingosine 1-phosphate receptor 2; assay: Binding affinity to S1PR2 (unknown origin) assessed as association constant measured for 60 secs by surface plasmon resonance assay; details: filed as antagonist, time 60.0 sec
[3] = target: T1, Sphingosine 1-phosphate receptor 2; assay: Antagonist activity at S1PR2 in human SW620/5-FU cells assessed as downregulation of DPD expression by western blot analysis; assay type: functional, cell-based; details: filed as antagonist
[4] = target: T1, Sphingosine 1-phosphate receptor 2; assay: Binding affinity to S1PR2 (unknown origin) assessed as dissociation constant measured for 60 secs by surface plasmon resonance assay
[5] = test system: NCM460; assay: Cytotoxicity against human NCM460 cells assessed as cell viability measured after 72 hrs in presence of 5-FU by MTT assay; assay type: cell-based; details: NCM460, 72 h
[6] = test system: HCT-116; assay: Reversal of 5-FU resistance against human HCT-116 cells overexpressing DPD assessed as inhibition of cell proliferation measured after 72 hrs in presence of 5-FU by MTT assay; assay type: functional, cell-based; details: HCT-116, 72 h
[7] = Reversal of 5-FU resistance against human SW620/5-FU cells assessed as inhibition of cell proliferation measured after 72 hrs in presence of 5-FU by MTT assay; assay type: functional, cell-based

Row | Compound | K [1] | Ka [2] | inhibition [3] | Dissociation rate constant (koff) [4] | EC50 [5] | EC50 [6] | EC50 [7]
1 | COc1cc(NC(=O)Nc2cc(Cl)nc(Cl)c2)cc(Cl)n1 | 6.82 10^-7M | 3.21 10^5/M/s | Active | 2.19 10^-1/s | 33.2 µM | 11.2 µM | 14.2 µM
2 | Cc1cc(NC(=O)Nc2cc(Cl)nc(Cl)c2)cc(C)n1 | 2.57 10^-8M | 5.69 10^6/M/s | – | 1.46 10^-1/s | 576 µM | 86.2 µM | 234 µM
3 | O=c1[nH]cc(F)c(=O)[nH]1 [FLUOROURACIL] | – | – | – | – | 43.3 µM | > 1000 µM | > 1000 µM
4 | O=C(NNc1nc(Nc2ccccc2)nc(N2CCCC2)n1)Nc1cc(Cl)nc(Cl)c1 | 1.86 10^-7M | 7.15 10^5/M/s | – | 1.33 10^-1/s | 65.2 µM | 23.2 µM | 31.9 µM
5 | Cc1cc(NC(=O)Nc2cc(Cl)nc(Cl)c2)n(C)n1 | 3.3 10^-6M | 5.36 10^4/M/s | – | 1.77 10^-1/s | 134 µM | 94.2 µM | 67.2 µM
6 | O=C(Nc1cc(Cl)nc(Cl)c1)Nc1cc2ccc(Br)cn2n1 | 2.02 10^-8M | 8.31 10^7/M/s | Active | 0.168 s⁻¹ | 8.94 µM | 5.26 µM | 11.7 µM
7 | O=C(Nc1cc(Cl)nc(Cl)c1)Nc1cc2ccc(-c3ccccc3)cn2n1 | 4.38 10^-8M | 4.59 10^6/M/s | Active | 2.01 10^-1/s | 8.05 µM | 5.13 µM | 9.25 µM
8 | CNc1cc(C)nc(NNC(=O)Nc2cc(Cl)nc(Cl)c2)n1 | 4.24 10^-6M | 5.56 10^4/M/s | – | 2.36 10^-1/s | 65.3 µM | 23.4 µM | 122 µM
9 | COc1ccc(-c2ccc3cc(NC(=O)Nc4cc(Cl)nc(Cl)c4)nn3c2)cc1 | 1.22 10^-8M | 9.12 10^6/M/s | Active | 1.12 10^-1/s | 8.35 µM | 5.35 µM | 9.62 µM
10 | CCOc1cc(NC(=O)Nc2cc(Cl)nc(Cl)c2)cc(Cl)n1 | 5.2 10^-7M | 1.96 10^5/M/s | Active | 1.02 10^-1/s | 25.3 µM | 6.13 µM | 8.15 µM
11 | O=C(Nc1ccnc(Cl)c1)Nc1cc(Cl)nc(Cl)c1 | 5.5 10^-6M | 3.65 10^4/M/s | – | 2.01 10^-1/s | 55.3 µM | 16.1 µM | 31.2 µM
12 | O=C(Nc1cc(Cl)nc(Cl)c1)Nc1cc2ccccn2n1 | 1.46 10^-8M | 7.93 10^6/M/s | Active | 1.16 10^-1/s | 10.2 µM | 5.13 µM | 2.49 µM
13 | CC(C)Oc1cc(NC(=O)Nc2cc(Cl)nc(Cl)c2)cc(Cl)n1 | 1.3 10^-7M | 9.14 10^5/M/s | Active | 1.19 10^-1/s | 21.1 µM | 5.23 µM | 5.17 µM
14 | O=C(NNc1nc(N2CCOCC2)c2ccn(C3CC3)c2n1)Nc1cc(Cl)nc(Cl)c1 | 2.17 10^-6M | 6.12 10^4/M/s | – | 1.33 10^-1/s | 549 µM | 449 µM | 436 µM
15 | O=C(Nc1cc(Cl)cc(Cl)c1)Nc1cc(Cl)nc(Cl)c1 | 3.56 10^-6M | 3.26 10^4/M/s | Active | 1.16 10^-1/s | 55.4 µM | 11.4 µM | 12.2 µM
16 | Cn1ccc2c(-c3ccccc3)nc(NNC(=O)Nc3cc(Cl)nc(Cl)c3)nc21 | 2.61 10^-6M | 5.21 10^4/M/s | – | 1.36 10^-1/s | 683 µM | 660 µM | 528 µM
17 | CN(C)c1nc(NNC(=O)Nc2cc(Cl)nc(Cl)c2)nc2c1ccn2C | 1.85 10^-6M | 7.55 10^4/M/s | – | 1.02 10^-1/s | 58.5 µM | 41.5 µM | 48.2 µM
18 | O=C(Nc1cc(Cl)nc(Cl)c1)Nc1cc(Cl)nc(OC2CCCC2)c1 | 3.99 10^-7M | 4.49 10^5/M/s | Active | 1.79 10^-1/s | 21.4 µM | 5.12 µM | 6.15 µM
19 | COc1c(Cl)cc(NC(=O)Nc2cc(Cl)nc(Cl)c2)cc1Cl | 5 10^-8M | 6.24 10^6/M/s | Active | 3.12 10^-1/s | 27.3 µM | 41.5 µM | 8.25 µM
20 | CN1CCN(C(=O)Nc2cc(Cl)nc(Cl)c2)CC1 | 5.35 10^-7M | 1.98 10^5/M/s | – | 1.06 10^-1/s | 521 µM | 142 µM | 548 µM
